These results are taken from PMC3806476, “Natural and Semisynthetic Analogues of Manadoperoxide B Reveal New Structural Requirements for Trypanocidal Activity” (Marine Drugs, 2013).

Converted amounts (≈) assume the structure as drawn. “And” between values parts separate entries of the source, which are not always exact repeats. Equal values may be shown once. Read-outs that look alike come from different tables or passages of the source. Where only a bound is given, the exact number is not on record here.

The test system of data set [1] is bloodstream forms of Trypanosoma brucei rhodesiense STIB 900 strain. The experiment in a line: Activity against Trypanosoma brucei rhodesiense (resazurin, 72 h). It counts as cell-based. The settings on record: for IC50: Trypanosoma brucei. The procedure:
Minimum Essential Medium (50 µL) supplemented with 25 mM HEPES, 1 g/L additional glucose, 1% MEM non-essential amino acids (100×), 0.2 mM 2-mercaptoethanol, 1mM Na-pyruvate and 15% heat inactivated horse serum was added to each well of a 96-well microtiter plate. Serial drug dilutions of eleven 3-fold dilution steps covering a range from 100 to 0.002 μg/mL were prepared. Then 4 × 10^4 bloodstream forms of STIB 900 strain (the stock was isolated in 1982 from a human patient in Tanzania and after several mouse passages was cloned and adapted to axenic culture conditions) of T. b. rhodesiense in 50 μL was added to each well and the plate incubated at 37 °C under a 5% CO2 atmosphere for 72 h. 10 µL of a resazurin solution (prepared dissolving 12.5 mg resazurin in 100 mL double distilled water) was then added to each well and incubation continued for a further 2–4 h. Then the plates were read in a Spectramax Gemini XS microplate fluorometer (Molecular Devices Cooperation, Sunnyvale, CA, USA) using an excitation wavelength of 536 nm and an emission wavelength of 588 nm. The IC50 values were calculated by linear regression from the sigmoidal dose inhibition curves using SoftmaxPro software (Molecular Devices Cooperation, Sunnyvale, CA, USA). Melarsoprol was the standard drug.

Data set [2] can be described thus: Cytotoxicity against L6 cells (resazurin, 72 h). It counts as cell-based, rat. The procedure: Assays were performed in 96-well microtiter plates, each well containing 100 μL of RPMI 1640 medium supplemented with 1% L-glutamine (200 mM) and 10% fetal bovine serum, and 4 × 10^4 L-6 cells. Serial drug dilutions of eleven 3-fold dilution steps covering a range from 100 to 0.002 μg/mL were prepared. After 72 h of incubation the plates were inspected under an inverted microscope to assure growth of the controls and sterile conditions. 10 μL of a resazurin solution (prepared dissolving 12.5 mg resazurin in 100 mL double distilled water) was then added to each well and the plates incubated for another 2 h. The plates were read with a Spectramax Gemini XS microplate fluorometer using an excitation wavelength of 536 nm and an emission wavelength of 588 nm. The IC50 values were calculated by linear regression from the sigmoidal dose inhibition curves using SoftmaxPro software (Molecular Devices Cooperation, Sunnyvale, CA, USA). The reported IC50 values are the means of at least two separate experiments. Podophyllotoxin was used as control drug.
(The colour change of resazurin is a common sign of viable cells or microbes.)

The test system of data set [3] is bloodstream forms of Trypanosoma brucei rhodesiense STIB 900 strain. Description: Activity against Trypanosoma brucei rhodesiense (resazurin, 72 h). The data set is classed as cell-based. The settings on record: at the highest test concentrations (20 μg/mL).
Data set [4] shares this test system. The arrangement: method as in PMID 22859016. The settings on record: cited from earlier work.
Setting [5] is: in vitro, bloodstream forms, mean of at least two replicates, read-out: IC50 T. b. rhodesiense.
Where [6] appears, read: in vitro, bloodstream forms, mean of at least two replicates, read-out: IC50 T. b. rhodesiense (in parentheses).
Where [7] appears, read: rat skeletal myoblasts, mean of at least two replicates, read-out: IC50 Cytotoxicity L6 cells.
The mark [8] stands for this setting: rat skeletal myoblasts, mean of at least two replicates, read-out: IC50 Cytotoxicity L6 cells (in parentheses).
Setting [9] is: in vitro, read-out: IC50 against T. b. rhodesiense.

By IC50 is commonly meant the concentration that gives 50% inhibition.

For the molecule `CC/C=C(C)\C=C\CCC[C@]1(OC)C[C@H](C)[C@H](CC(=O)OC)OO1` [12-Isomanadoperoxide B (2), 12-isomanadoperoxide B], the “selectivity index (SI)” value in data set [1] (IC50 against L6 cells divided by IC50 against the parasite) is 345. Moreover, the IC50 in data set [1] (setting [5]) turned out to be 0.011 µg/mL; in data set [1] (setting [6]) it was 32 nM. In data set [1] (comparison of IC50 values against T. b. rhodesiense), the “trypanocidal activity relative to manadoperoxide B (1)” value was “four-fold reduction”. For the same molecule, in data set [2] (rat), the IC50 at 72 h is 3.8 µg/mL and 11.2 µM.
Consider `COC(=O)C[C@@H]1OO[C@@](CCCC=O)(OC)C[C@@H]1C` [Aldehyde 7], for which the values for the IC50 in data set [1] (setting [5]) and in data set [1] (setting [6]) were 1.21 µg/mL and 4420 nM, respectively. The IC50 at 72 h in data set [2] (rat) is 7.55 µg/mL and 27.6 µM.
Turning to `CC/C=C(C)/C=C/CCCC1(O)C[C@H](C)[C@H](CC(=O)OC)O1` (stereo partly drawn) [Compound 6], the IC50 in data set [1] (setting [5]) was > 20 µg/mL. The “antitrypanosomal activity (in words)” value in data set [3] was “inactive”. Besides, the IC50 at 72 h in data set [2] (rat) is 82.3 µg/mL and 252 µM.
With `CC[C@H]1OO[C@@H](CCC[C@]2(OC)C[C@H](C)[C@H](CC(=O)OC)OO2)C=C1C` [Compound 8], the values for the concentration for half-maximal inhibition (IC50) in data set [1] (setting [5]) and in data set [1] (setting [6]) were 0.16 µg/mL and 430 nM, respectively. For the same molecule, the IC50 at 72 h in data set [2] (rat) is 12.6 µg/mL and 33.8 µM.
Take `CC/C=C(C)/C=C/CCC[C@]1(OC)C[C@H](C)[C@H](CC(=O)OC)OO1` [Manadoperoxide B (1), manadoperoxide B]: the “IC50 T. b. rhodesiense” value in data set [4] (in vitro) is 3 ng/mL (≈ 8.81 nM). In addition, the IC50 in data set [4] (in vitro, read-out: IC50 T. b. rhodesiense (in parentheses)) is 8.8 nM.
Turning to `CC/C=C(C)/C=C/CCC[C@]1(OC)C[C@H](C)[C@H](CC(=O)O)OO1` [Manadoperoxidic acid B (3), manadoperoxidic acid B], the IC50 was found to be 1.87 µg/mL in data set [1] (setting [5]) and 5740 nM in data set [1] (setting [6]). The IC50 at 72 h in data set [2] (rat) is 7.12 µg/mL and 21.8 µM.
As for `Nc1nc(N)nc(Nc2ccc([As]3SCC(CO)S3)cc2)n1` (stereo not drawn) [Melarsoprol, reference compound], the results for the IC50 in data set [1] (read-out: IC50 T. b. rhodesiense) and in data set [1] (read-out: IC50 T. b. rhodesiense (in parentheses)) were 0.002 µg/mL and 5 nM, respectively. In addition, the IC50 at 72 h is 7.3 µg/mL in data set [2] (setting [7]) and 18.2 µM in data set [2] (setting [8]).
`COc1cc([C@@H]2c3cc4c(cc3[C@H](O)[C@H]3COC(=O)[C@H]23)OCO4)cc(OC)c1OC` [Podophyllotoxin, reference compound]: the IC50 at 72 h in data set [2] (setting [7]) was 0.004 µg/mL; in data set [2] (setting [8]) it was 0.0096 µM.
manadoperoxide I: the “IC50 against T. b. rhodesiense” value in data set [4] (in vitro) was 62 ng/mL. Further, in data set [4] (setting [9]), the IC50 was 170 nM.
Turning to manadoperoxide K, in data set [4] (in vitro), the “IC50 against T. b. rhodesiense” value is 87 ng/mL. For the same molecule, the IC50 in data set [4] (setting [9]) was 240 nM.
Regarding peroxyplakoric ester B3, the “activity against T. b. rhodesiense (in words)” value in data set [4] (methyl linked at C-2 in place of C-4) is recorded as “almost completely lost”.
